From US20240150362A1, “Substituted Pyrrolotriazines” (Molecure S.A., priority 2022, published 2024) come the findings set out here.

Molecules are shown by their SMILES. Where a name gives a salt, the structure may show the parent alone.

In the first assay the target is T1, full-length USP7 (Homo sapiens, UniProt Q93009).
T1 construct: A 45 μl reaction volume containing full-length USP7 (0.5-1.0 nM)
T1 sequence (Q93009 whole entry): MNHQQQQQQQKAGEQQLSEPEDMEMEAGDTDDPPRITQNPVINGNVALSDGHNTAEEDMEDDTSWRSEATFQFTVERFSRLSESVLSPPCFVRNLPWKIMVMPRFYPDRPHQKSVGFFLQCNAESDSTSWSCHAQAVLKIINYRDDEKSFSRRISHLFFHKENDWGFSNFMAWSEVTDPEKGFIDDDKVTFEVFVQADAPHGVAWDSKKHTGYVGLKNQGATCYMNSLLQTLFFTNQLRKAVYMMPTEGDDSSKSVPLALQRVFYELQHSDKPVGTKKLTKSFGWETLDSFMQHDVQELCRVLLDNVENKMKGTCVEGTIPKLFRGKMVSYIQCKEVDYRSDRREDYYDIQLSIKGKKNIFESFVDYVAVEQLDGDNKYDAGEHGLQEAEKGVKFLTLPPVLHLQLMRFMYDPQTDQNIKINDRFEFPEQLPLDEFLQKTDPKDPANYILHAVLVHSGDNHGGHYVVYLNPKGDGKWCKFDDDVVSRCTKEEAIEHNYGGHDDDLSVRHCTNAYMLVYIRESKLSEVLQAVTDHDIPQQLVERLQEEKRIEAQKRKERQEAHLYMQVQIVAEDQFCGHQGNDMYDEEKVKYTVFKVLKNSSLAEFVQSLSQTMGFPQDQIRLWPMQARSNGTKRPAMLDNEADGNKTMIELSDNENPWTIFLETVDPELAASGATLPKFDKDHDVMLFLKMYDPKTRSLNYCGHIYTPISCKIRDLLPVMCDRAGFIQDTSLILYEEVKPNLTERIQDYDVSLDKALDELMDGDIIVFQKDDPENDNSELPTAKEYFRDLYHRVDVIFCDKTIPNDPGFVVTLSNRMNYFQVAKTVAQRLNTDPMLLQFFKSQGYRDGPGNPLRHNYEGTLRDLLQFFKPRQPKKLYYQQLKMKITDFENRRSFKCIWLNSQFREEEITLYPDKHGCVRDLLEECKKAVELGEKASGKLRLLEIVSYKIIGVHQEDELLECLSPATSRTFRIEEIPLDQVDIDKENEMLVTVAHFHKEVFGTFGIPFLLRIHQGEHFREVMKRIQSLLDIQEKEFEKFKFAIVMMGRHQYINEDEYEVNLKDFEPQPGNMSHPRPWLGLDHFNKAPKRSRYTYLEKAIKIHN
Description: Enzymatic assay to determine % inhibition of USP7 activity at 1 μM test compound (Ubiquitin-Rhodamine 110 cleavage). The assay is classed as biochemical. The conditions noted are these: 1 μM of the test compound; given where IC50 has not been determined yet; mean of two repetitions. The method, then: Enzymatic Assay to Determine % Value of Inhibition […] Activity at 1 μM […]
A 45 μl reaction volume containing full-length USP7 (0.5-1.0 nM) in 50 mM HEPES pH 7.5, 150 mM NaCl, 2 mM DTT, 1 mg/ml BSA and 0.05% Tween20 (DUB assay buffer) was assembled in wells of 96 well half area black flat bottom plates. All test compounds were first dissolved to 30 mM stocks in DMSO and subsequently introduced to enzyme 15 min after USP7 incubation with DTT at room temperature. The final concentration of tested compounds was 1 μM. The enzymatic reaction was started by adding 0.5 μM Ubiquitin-Rhodamine 110 (final concentration) and allowed to proceed for 30-60 min at 25° C., 250 RPM shaking before Rhodamine fluorescence (485 nm excitation/535 nm emission) was measured using Tecan Spark M10 plate reader. Percentage of inhibition at 1 μM was determined by the mean of two repetitions for these concentrations using Microsoft Excel software.
For orientation: inhibition means the change of the read-out against control, counted positive when it falls. `CC1(C)C2C(=O)N(Cc3cc4c(-c5cc(Cl)cc6c5N(C5CCNCC5)CCC6)ncnn4c3)C(=O)C21` (centres unmarked) [Example 54, 3-((4-(6-chloro-1-(piperidin-4-yl)-1,2,3,4-tetrahydroquinolin-8-yl)pyrrolo[2,1-f][1,2,4]triazin-6-yl)methyl)-6,6-dimethyl-3-azabicyclo[3.1.0]hexane-2,4-dione hydrochloride] came in with an inhibition at 1 µM of over 70%.

`Cc1cc(Cl)cc(-c2ncnn3cc(CN4C(=O)C5C(C4=O)C5(C)C)cc23)c1CC1CNCC(F)(F)CO1` (centres unmarked) [Example 38, 3-((4-(5-chloro-2-((6,6-difluoro-1,4-oxazepan-2-yl)methyl)-3-methylphenyl)pyrrolo[2,1-f][1,2,4]triazin-6-yl)methyl)-6,6-dimethyl-3-azabicyclo[3.1.0]hexane-2,4-dione hydrochloride] returned an inhibition at 1 µM of under 20%.

`Cc1cc(Cl)cc(-c2ncnn3cc(C(=O)O)cc23)c1O[C@H]1CCCNC1` [Example 16, (S)-4-(5-chloro-3-methyl-2-(piperidin-3-yloxy)phenyl)pyrrolo[2,1-f][1,2,4]triazine-6-carboxylic acid hydrochloride] displayed an inhibition at 1 µM of under 20%.

As to `CN[C@H]1CCCN(c2ccc(Cl)cc2-c2ncnn3cc(CN4C(=O)C5C(C4=O)C5(C)C)cc23)C1` (stereo partly drawn) [Example 112, 3-((4-(5-chloro-2-((S)-3-(methylamino)piperidin-1-yl)phenyl)pyrrolo[2,1-f][1,2,4]triazin-6-yl)methyl)-6,6-dimethyl-3-azabicyclo[3.1.0]hexane-2,4-dione hydrochloride], the inhibition at 1 µM was 50 to 70%.

Turning to `Cc1cc(Cl)cc(-c2ncnn3cc(CN4C(=O)C5C(C4=O)C5(C)C)cc23)c1O[C@@H]1CNCC(F)(F)C1` (stereo partly drawn) [Example 28, 3-((4-(5-chloro-2-(((S)-5,5-difluoropiperidin-3-yl)oxy)-3-methylphenyl)pyrrolo[2,1-f][1,2,4]triazin-6-yl)methyl)-6,6-dimethyl-3-azabicyclo[3.1.0]hexane-2,4-dione 2,2,2-trifluoroacetate], the inhibition at 1 µM is under 20%.

On to `CC1(C)C2C(=O)N(Cc3cc4c(-c5cc(Cl)ccc5N5CCC6(CCCN6)C5)ncnn4c3)C(=O)C21` (centres unmarked) [Example 91, 3-((4-(5-chloro-2-(1,7-diazaspiro[4.4]nonan-7-yl)phenyl)pyrrolo[2,1-f][1,2,4]triazin-6-yl)methyl)-6,6-dimethyl-3-azabicyclo[3.1.0]hexane-2,4-dione hydrochloride], for which the inhibition at 1 µM was in the range of 20 to 49%.

For the compound `Cc1cc(Cl)cc(-c2ncnn3cc(CN4C(=O)C5C(C4=O)C5(C)C)cc23)c1NCC1CCCNC1` (centres unmarked) [Example 79, 3-((4-(5-chloro-3-methyl-2-((piperidin-3-ylmethyl)amino)phenyl)pyrrolo[2,1-f][1,2,4]triazin-6-yl)methyl)-6,6-dimethyl-3-azabicyclo[3.1.0]hexane-2,4-dione dihydrochloride], the inhibition at 1 µM lay within 50 to 70%.

As for `Cc1cc(Cl)cc(-c2ncnn3cc(Cn4c(=O)ccn(C)c4=O)cc23)c1CC1CNC[C@H](C)O1` (stereo partly drawn) [Example 122, 3-((4-(5-chloro-3-methyl-2-(((6S)-6-methylmorpholin-2-yl)methyl)phenyl)pyrrolo[2,1-f][1,2,4]triazin-6-yl)methyl)-1-methylpyrimidine-2,4(1H,3H)-dione dihydrochloride], the inhibition at 1 µM lay in the range of 20 to 49%.

In turn, `Cc1cc(Cl)cc(-c2ncnn3cc(CN4C(=O)C5C(C4=O)C5(C)C)cc23)c1OC[C@@H]1CCCNC1` (stereo partly drawn) [Example 53, 3-((4-(5-chloro-3-methyl-2-(((R)-piperidin-3-yl)methoxy)phenyl)pyrrolo[2,1-f][1,2,4]triazin-6-yl)methyl)-6,6-dimethyl-3-azabicyclo[3.1.0]hexane-2,4-dione hydrochloride] returned an inhibition at 1 µM of 20 to 49%.

As for `Cc1cc(Cl)cc(-c2ncnn3cc(CN4C(=O)C5C(C4=O)C5(C)C)cc23)c1CC1CNCC(CF)O1` (single isomer, unassigned) [Example 43, 3-((4-(5-chloro-2-((6-(fluoromethyl)morpholin-2-yl)methyl)-3-methylphenyl)pyrrolo[2,1-f][1,2,4]triazin-6-yl)methyl)-6,6-dimethyl-3-azabicyclo[3.1.0]hexane-2,4-dione hydrochloride], the inhibition at 1 µM lay in the range of 20 to 49%.

On to `CC1(C)C2C(=O)N(Cc3cc4c(-c5cc(Cl)ccc5N5C[C@H]6CCN[C@H]6C5)ncnn4c3)C(=O)C21` (stereo partly drawn) [Example 90, 3-((4-(5-chloro-2-((3aR,6aR)-hexahydropyrrolo[3,4-b]pyrrol-5(1H)-yl)phenyl)pyrrolo[2,1-f][1,2,4]triazin-6-yl)methyl)-6,6-dimethyl-3-azabicyclo[3.1.0]hexane-2,4-dione hydrochloride], for which the inhibition at 1 µM was 50 to 70%.

The compound `CCOC(=O)c1cc2c(-c3cc(Cl)cc(C)c3O[C@H]3CCCNC3)ncnn2c1` [Example 15, ethyl (S)-4-(5-chloro-3-methyl-2-(piperidin-3-yloxy)phenyl)pyrrolo[2,1-f][1,2,4]triazine-6-carboxylate hydrochloride] registered an inhibition at 1 µM of 20 to 49%.

`Cc1cc(F)cc(-c2ncnn3cc(Cn4c(=O)ccn(C)c4=O)cc23)c1CC1CNC[C@H](C)O1` (stereo partly drawn) [Example 128, 3-((4-(5-fluoro-3-methyl-2-(((6S)-6-methylmorpholin-2-yl)methyl)phenyl)pyrrolo[2,1-f][1,2,4]triazin-6-yl)methyl)-1-methylpyrimidine-2,4(1H,3H)-dione hydrochloride] had an inhibition at 1 µM of 20 to 49%.

The compound `Cc1cc(Cl)cc(-c2ncnn3cc(CN4C(=O)C5C(C4=O)C5(C)C)cc23)c1OCC1(C)CCCNC1` (single isomer, unassigned) [Example 74, 3-((4-(5-chloro-3-methyl-2-((3-methylpiperidin-3-yl)methoxy)phenyl)pyrrolo[2,1-f][1,2,4]triazin-6-yl)methyl)-6,6-dimethyl-3-azabicyclo[3.1.0]hexane-2,4-dione hydrochloride] displayed an inhibition at 1 µM of 50 to 70%.

On to `CC1(C)C2C(=O)N(Cc3cc4c(-c5cc(Cl)ccc5N5C[C@@H]6CCN[C@@H]6C5)ncnn4c3)C(=O)C21` (stereo partly drawn) [Example 96, 3-((4-(5-chloro-2-((3aS,6aS)-hexahydropyrrolo[3,4-b]pyrrol-5(1H)-yl)phenyl)pyrrolo[2,1-f][1,2,4]triazin-6-yl)methyl)-6,6-dimethyl-3-azabicyclo[3.1.0]hexane-2,4-dione hydrochloride], for which the inhibition at 1 µM was under 20%.

In turn, `Cc1cc(Cl)cc(-c2ncnn3cc(Cn4cc(F)c(=O)n(C)c4=O)cc23)c1C[C@@H]1CNCCO1` (single isomer, unassigned) [Example 98, hydrochloride] gave an inhibition at 1 µM of under 20%.

Compound `Cc1cc(Cl)cc(-c2ncnn3cc(CN4C(=O)C5C(C4=O)C5(C)C)cc23)c1O[C@@H]1CN[C@@H](C)C1` (stereo partly drawn) [Example 20, 3-((4-(5-chloro-3-methyl-2-(((3S,5S)-5-methylpyrrolidin-3-yl)oxy)phenyl)pyrrolo[2,1-f][1,2,4]triazin-6-yl)methyl)-6,6-dimethyl-3-azabicyclo[3.1.0]hexane-2,4-dione hydrochloride] gave an inhibition at 1 µM of 20 to 49%.

In the case of `O=C1CN2CCC[C@H]2C(=O)N1Cc1cc2c(-c3cc(Cl)cc4ccn(C[C@@H]5CNCCO5)c34)ncnn2c1` (single isomer, unassigned) [Example 31, dihydrochloride], the inhibition at 1 µM lay in the range of 50 to 70%.

For the compound `Cc1cc(Cl)cc(-c2ncnn3cc(CN4C(=O)C5C(C4=O)C5(C)C)cc23)c1CN1CCC2(CC1)CNC2` (centres unmarked) [Example 102, 3-((4-(2-((2,7-diazaspiro[3.5]nonan-7-yl)methyl)-5-chloro-3-methylphenyl)pyrrolo[2,1-f][1,2,4]triazin-6-yl)methyl)-6,6-dimethyl-3-azabicyclo[3.1.0]hexane-2,4-dione hydrochloride], the inhibition at 1 µM was in the range of 20 to 49%.

As for `Cc1cc(Cl)cc(-c2ncnn3cc(CN4C(=O)C5C(C4=O)C5(C)C)cc23)c1NC[C@@H]1CNCCO1` (stereo partly drawn) [Example 81, 3-((4-(5-chloro-3-methyl-2-((((S)-morpholin-2-yl)methyl)amino)phenyl)pyrrolo[2,1-f][1,2,4]triazin-6-yl)methyl)-6,6-dimethyl-3-azabicyclo[3.1.0]hexane-2,4-dione dihydrochloride], the inhibition at 1 µM lay in the range of 20 to 49%.

Consider `Cc1cc(Cl)cc(-c2ncnn3cc(Cn4c(=O)cc[nH]c4=O)cc23)c1CC1CNC[C@H](C)O1` (single isomer, unassigned) [Example 121, dihydrochloride], for which the inhibition at 1 µM was in the range of 50 to 70%.

With `Cc1cc(Cl)cc(-c2ncnn3cc(CN4C(=O)C5C(C4=O)C5(C)C)cc23)c1CC1CNCC(CF)O1` (centres unmarked) [Example 42, 3-((4-(5-chloro-2-((6-(fluoromethyl)morpholin-2-yl)methyl)-3-methylphenyl)pyrrolo[2,1-f][1,2,4]triazin-6-yl)methyl)-6,6-dimethyl-3-azabicyclo[3.1.0]hexane-2,4-dione hydrochloride], the inhibition at 1 µM was in the range of 50 to 70%.

The same assay, now with this note: 1 μM of the test compound; given where IC50 has not been determined yet; mean of two repetitions; hydrochloride, 1 µM.
On to `Cc1cc(Cl)cc(-c2ncnn3cc(CN4C(=O)C5C(C4=O)C5(C)C)cc23)c1OC(C)C1CCNCC1.Cl` (single isomer, unassigned) [Example 57, 3-((4-(5-chloro-3-methyl-2-(1-(piperidin-4-yl)ethoxy)phenyl)pyrrolo[2,1-f][1,2,4]triazin-6-yl)methyl)-6,6-dimethyl-3-azabicyclo[3.1.0]hexane-2,4-dione hydrochloride], for which the USP7 % inhibition entry is “C* (C*: 20-49% inhibition)”.
